Data: patent US5756512A, “Treatment of non-small cell lung carcinoma” (SmithKline Beecham Corporation, priority 1996, dated 1998)

What was measured:
DNA topoisomerase I = conditions: background statement; cited from earlier work
[1] = system: non-small cell lung carcinoma; experiment: clinical response, patient with metastatic non-small cell lung carcinoma, tumor size by CAT scan; format: in vivo, human; conditions: for response to pretreatment: pretreatment with VP-16 (etoposide) and cisplatin, same patient before topotecan
Experimental: One human patient with metastatic non-small cell lung carcinoma, who was refractory to pretreatment with VP-16 (etoposide) and cisplatin, received a course of therapy comprising intravenous administration of 1.5 mg of topotecan/m^2 of body surface area per day for five consecutive days. This course of therapy was repeated at least five more times at twenty-one day intervals (from the date of initiation of therapy) for a total of at least […] treatments. Tumor size regression was evaluated by CAT (computerized axial tomography) scan.

[2] = system: non-small cell lung carcinoma; experiment: clinical response, second patient with non-small cell lung carcinoma; format: in vivo, human
[3] = qualitative statement; cited from earlier work
[4] = stability of diluted topotecan solutions in plastic bags at room temperature (percentage of initial topotecan remaining); format: physicochemical; conditions: 0 hrs
Experimental: Stability--Shelf life surveillance of the intact vials is ongoing. Because the single-use lyophilized dosage form contains no antibacterial preservatives, it is advised that the reconstituted solution be discarded eight hours after initial entry into the vial. Further dilutions of the reconstituted solution to concentrations of 0.02 mg/ml and 0.1 mg.ml in 5% Dextrose Injection, USP, ("D5W") or 0.9% Sodium Chloride Injection, USP, ("NS") in plastic bags stored at room temperature yielded the following stability results:
PERCENTAGE OF INITIAL TOPOTECAN REMAINING IN SOLUTION

CC[C@@]1(O)C(=O)OCc2c1cc1n(c2=O)Cc2cc3ccccc3nc2-1 [camptothecin, reference compound]
inhibition of topoisomerase I (DNA topoisomerase I): known to inhibit topoisomerase I

N.N.[Cl][Pt][Cl] [cisplatin]
response to pretreatment [1]: refractory

COc1cc([C@@H]2c3cc4c(cc3[C@@H](O[C@@H]3O[C@@H]5CO[C@@H](C)O[C@H]5[C@H](O)[C@H]3O)[C@H]3COC(=O)[C@H]23)OCO4)cc(OC)c1O [etoposide]
response to pretreatment [1]: refractory

CC(O)CCC(=O)c1ccoc1 (stereo not drawn) [ipomeanol, reference compound]
response to previous ipomeanol ([2]; same patient before topotecan): failed to respond

CC[C@@]1(O)C(=O)OCc2c1cc1n(c2=O)Cc2cc3c(CN(C)C)c(O)ccc3nc2-1 [topotecan, (S)-9-dimethylaminomethyl-10-hydroxycamptothecin]
response (measurable tumor size regression) ([2]; one patient, prior radiation and ipomeanol, at least one course i.v. 1.5 mg/m^2 per day, five consecutive days): a temporary response (measurable tumor size regression) was observed | inhibition of topoisomerase I (DNA topoisomerase I): specific inhibitor of DNA topoisomerase I | water solubility [3]: water-soluble | Percentage of initial topotecan remaining in solution ([4]; D5W, 0.02 mg/ml): 100.00% | Percentage of initial topotecan remaining in solution ([4]; D5W, 0.1 mg/ml): 100.00% | Percentage of initial topotecan remaining in solution ([4]; NS, 0.02 mg/ml): 100.00% | Percentage of initial topotecan remaining in solution ([4]; NS, 0.1 mg/ml): 100.00% | tumor size regression (CAT scan) ([1]; one patient refractory to VP-16 and cisplatin, i.v. 1.5 mg/m^2 per day, five consecutive days, repeated at twenty-one day intervals, after six treatment regimen): a complete regression of the disease was observed
